Test results published in patent US9040712B2, “Thiadiazole analogs thereof and methods for treating SMN-deficiency-related-conditions” (NOVARTIS AG, priority 2013, dated 2015).
Structures can show the parent of a compound that is named as a salt.

Each compound was assayed on SMN protein (assay: cellular SMN ELISA (SMN protein elevation)). Details: myoblast cell line derived from SMNdelta7 mouse model; 24 hours compound treatment; concentration range 100 pM-10 uM.
Assay type: cell-based
In short: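 Myoblasts derived from the SMNdelta7 mouse model, 3000 cells/well, treated with compound (100 pM–10 uM) for 24 h, then lysed in modified RIPA buffer. SMN protein quantified by sandwich ELISA (anti-SMN mAb capture, rabbit polyclonal detection, HRP/TMB, 450 nm). Results given as fold activation over DMSO and EC50.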

Compound	EC50 [nM]	SMN Activity Fold (fold activation over DMSO control) [fold]
CN(c1nnc(-c2c(O)cc(-c3ccn(C)c(=O)c3)cc2OC(F)(F)F)s1)C1CC(C)(C)NC(C)(C)C1 [Example 60, 4-(3-hydroxy-4-(5-(methyl(2,2,6,6-tetra-methylpiperidin-4-yl)amino)-1,3,4-thiadiazol-2-yl)-5-(trifluoromethoxy)phenyl)-1-methylpyridin-2(1H)-one]	53	2.69
CN(c1nnc(-c2cc3ccccc3nc2O)s1)C1CC(C)(C)NC(C)(C)C1 [Example 23, 3-(5-(Methyl(2,2,6,6-tetramethylpiperidin-4-yl)amino)-1,3,4-thiadiazol-2-yl)quinolin-2-ol]	231	2.66
COc1cc(-c2cn[nH]c2)cc(F)c1-c1nnc(N2C[C@H]3CN(C)C[C@H]3C2)s1 [Example 62, 2-(2-fluoro-6-methoxy-4-(1H-pyrazol-4-yl)phenyl)-5-((3aR,6aS)-5-methylhexahydro-pyrrolo[3,4-c]pyrrol-2(1H)-yl)-1,3,4-thiadiazole]	3640	2.01
COc1cc2ccccc2cc1-c1nnc(N(C)C2CC(C)(C)NC(C)(C)C2)s1 [Example 4, 5-(3-Methoxynaphthalen-2-yl)-N-methyl-N-(2,2,6,6-tetramethylpiperidin-4-yl)-1,3,4-thiadiazol-2-amine]	887	2.48
CN(c1nnc(-c2cc3ccccc3cc2O)s1)C1CC(C)(C)NC(C)(C)C1 [Example 22, 3-(5-(Methyl(2,2,6,6-tetramethylpiperidin-4-yl)amino)-1,3,4-thiadiazol-2-yl)naphthalen-2-ol.HBr]	253	2.70
CN(c1nnc(-c2cc(-c3ccnc(N)n3)ccc2Cl)s1)C1CC(C)(C)NC(C)(C)C1 [Example 57, 5-(5-(2-aminopyrimidin-4-yl)-2-chlorophenyl)-N-methyl-N-(2,2,6,6-tetramethylpiperidin-4-yl)-1,3,4-thiadiazol-2-amine]	94	2.55
CN(c1nnc(-c2ccc(-c3ccnc(N)n3)cc2Cl)s1)C1CC(C)(C)NC(C)(C)C1 [Example 56, 5-(4-(2-aminopyrimidin-4-yl)-2-chlorophenyl)-N-methyl-N-(2,2,6,6-tetramethylpiperidin-4-yl)-1,3,4-thiadiazol-2-amine]	41	2.47
COc1cc(-c2cn[nH]c2)cc(F)c1-c1nnc(N(C)C2CC(C)(C)NC(C)(C)C2)s1 [Example 61, 5-(2-fluoro-6-methoxy-4-(1H-pyrazol-4-yl)phenyl)-N-methyl-N-(2,2,6,6-tetramethylpiperidin-4-yl)-1,3,4-thiadiazol-2-amine]	95	2.36
COc1ccc2c(c1)CCN(c1nnc(N(C)C3CC(C)(C)NC(C)(C)C3)s1)C2=O [Example 64, 6-methoxy-2-(5-(methyl(2,2,6,6-tetramethylpiperidin-4-yl)amino)-1,3,4-thiadiazol-2-yl)-3,4-dihydroisoquinolin-1(2H)-one]	1620	2.51
CN(c1nnc(-c2c(O)cc(-c3cn[nH]c3)cc2Cl)s1)C1CC(C)(C)NC(C)(C)C1 [Example 97, 3-chloro-2-(5-(methyl(2,2,6,6-tetramethylpiperidin-4-yl)amino)-1,3,4-thiadiazol-2-yl)-5-(1H-pyrazol-4-yl)phenol]		2.45
CN(C)CC1CN(c2nnc(-c3ccc(-c4cn[nH]c4)cc3Cl)s2)CCO1 (stereo not shown) [Example 82, 1-(4-(5-(2-chloro-4-(1H-pyrazol-4-yl)phenyl)-1,3,4-thiadiazol-2-yl)morpholin-2-yl)-N,N-dimethylmethanamine]	994	2.50
CN(c1nnc(-c2ccc(-n3ccnc3)cc2F)s1)C1CC(C)(C)NC(C)(C)C1 [Example 72, 5-(2-fluoro-4-(1H-imidazol-1-yl)phenyl)-N-methyl-N-(2,2,6,6-tetramethylpiperidin-4-yl)-1,3,4-thiadiazol-2-amine]	91	2.50
CN(c1nnc(-c2ccc(-c3ccc(=O)n(C)c3)cc2O)s1)C1CC(C)(C)NC(C)(C)C1 [Example 17, 5-(3-Hydroxy-4-(5-(methyl(2,2,6,6-tetramethyl-piperidin-4-yl)amino)-1,3,4-thiadiazol-2-yl)phenyl)-1-methylpyridin-2(1H)-one]	36	2.74
Cc1nc(C)c(-c2ccc(-c3nnc(N(C)C4CC(C)(C)NC(C)(C)C4)s3)c(F)c2F)s1 [Example 59, 5-(4-(2,4-dimethylthiazol-5-yl)-2,3-difluorophenyl)-N-methyl-N-(2,2,6,6-tetramethylpiperidin-4-yl)-1,3,4-thiadiazol-2-amine]	1500	2.69
COc1cc(-c2cnn(C)c2)ccc1-c1nnc(N(C)C2CC(C)(C)NC(C)(C)C2)s1 [Example 6, 5-(2-Methoxy-4-(1-methyl-1H-pyrazol-4-yl)phenyl)-N-methyl-N-(2,2,6,6-tetramethylpiperidin-4-yl)-1,3,4-thiadiazol-2-amine]	44	2.49
CN(c1nnc(-c2ccc(-c3ccn(C)c(=O)c3)cc2OC(F)(F)F)s1)C1CC(C)(C)NC(C)(C)C1 [Example 12, 1-Methyl-4-(4-(5-(methyl(2,2,6,6-tetramethyl-piperidin-4-yl)amino)-1,3,4-thiadiazol-2-yl)-3-(trifluoromethoxy)phenyl)pyridin-2(1H)-one]	895	2.20
CN(c1nnc(-c2cc3cc(C#N)ccc3s2)s1)C1CC(C)(C)NC(C)(C)C1 [Example 108, 2-(5-(methyl(2,2,6,6-tetramethylpiperidin-4-yl)amino)-1,3,4-thiadiazol-2-yl)benzo[b]thiophene-5-carbonitrile]	539	2.72
CN(c1nnc(-c2cc3cccnc3cc2O)s1)C1CC(C)(C)NC(C)(C)C1 [Example 32, 6-(5-(Methyl(2,2,6,6-tetramethylpiperidin-4-yl)amino)-1,3,4-thiadiazol-2-yl)quinolin-7-ol]	256	2.48
COc1cc(-c2sc(C)nc2C)ccc1-c1nnc(N(C)C2CC(C)(C)NC(C)(C)C2)s1 [Example 74, 5-(4-(2,4-dimethylthiazol-5-yl)-2-methoxyphenyl)-N-methyl-N-(2,2,6,6-tetramethylpiperidin-4-yl)-1,3,4-thiadiazol-2-amine]	85	2.64
COc1cc(-c2cn[nH]c2)c(F)c(F)c1-c1nnc(N(C)C2CC(C)(C)NC(C)(C)C2)s1 [Example 63, 5-(2,3-difluoro-6-methoxy-4-(1H-pyrazol-4-yl)phenyl)-N-methyl-N-(2,2,6,6-tetramethyl-piperidin-4-yl)-1,3,4-thiadiazol-2-amine]	47	3.13
CN(c1nnc(-c2ccc(-n3nccn3)cc2Cl)s1)C1CC(C)(C)NC(C)(C)C1 [Example 67, 5-(2-chloro-4-(2H-1,2,3-triazol-2-yl)phenyl)-N-methyl-N-(2,2,6,6-tetramethylpiperidin-4-yl)-1,3,4-thiadiazol-2-amine]	159	2.45
OC[C@H]1CN(c2nnc(-c3ccc(-c4cn[nH]c4)cc3Cl)s2)CCN1 [Example 107, (R)-(4-(5-(2-chloro-4-(1H-pyrazol-4-yl)phenyl)-1,3,4-thiadiazol-2-yl)piperazin-2-yl)methanol•Hydrochloride Salt]	4540	2.06
Cn1cc(-c2ccc(-c3nnc(N4CC5(CCNCC5)C4)s3)c(O)c2)cn1 [Example 95, 2-(5-(2,7-diazaspiro[3.5]nonan-2-yl)-1,3,4-thiadiazol-2-yl)-5-(1-methyl-1H-pyrazol-4-yl)phenol]	53	2.44
COc1c(-c2nnc(N(C)C3CC(C)(C)NC(C)(C)C3)s2)c(=O)n(C)c2ccccc12 [Example 101, 4-methoxy-1-methyl-3-(5-(methyl(2,2,6,6-tetramethylpiperidin-4-yl)amino)-1,3,4-thiadiazol-2-yl)quinolin-2(1H)-one]	742	2.51
CN(c1nnc(-c2ccc(C#N)cc2F)s1)C1CC(C)(C)NC(C)(C)C1 [Example 34, 3-fluoro-4-(5-(methyl(2,2,6,6-tetramethylpiperidin-4-yl)amino)-1,3,4-thiadiazol-2-yl)benzonitrile]	> 10000	2.32
CN(c1nnc(-c2cc3ccc(O)cc3cc2O)s1)C1CC(C)(C)NC(C)(C)C1 [Example 20, 3-(5-(Methyl(2,2,6,6-tetramethylpiperidin-4-yl)amino)-1,3,4-thiadiazol-2-yl)naphthalene-2,7-diol]	48	2.63
CN(c1nnc(-c2ccc(-c3ccc(=O)[nH]c3)cc2Cl)s1)C1CC(C)(C)NC(C)(C)C1 [Example 88, 5-(3-chloro-4-(5-(methyl(2,2,6,6-tetramethylpiperidin-4-yl)amino)-1,3,4-thiadiazol-2-yl)phenyl)pyridin-2(1H)-one]	160	2.22
CN(c1nnc(-c2c(O)c3ccccc3n(C)c2=O)s1)C1CC(C)(C)NC(C)(C)C1 [Example 102, 4-hydroxy-1-methyl-3-(5-(methyl(2,2,6,6-tetramethylpiperidin-4-yl)amino)-1,3,4-thiadiazol-2-yl)quinolin-2(1H)-one]	24	2.71
